The values below come from a melting point compilation (Tetko et al.; mined from patent text by program, amines drawn as free bases though some values may be those of a salt).

Broadly, the melting point is the temperature of the solid-liquid transition.

Take `COc1ccc(-c2nccn2N=Cc2ccccc2)cc1`: the melting point was 155 °C.

`O=C(O)CNC(=O)CSC(=O)c1ccccc1` yielded a melting point of 140 to 142 °C.

In the case of `CCOC(=O)CNc1ccc2oc3c(OC)ccc(C(=O)Nc4c(Cl)cncc4Cl)c3c2c1`, the melting point was over 270 °C.

For the molecule `CCCCCCCCCCN(O)C(=O)NCCC(=O)OC`, the melting point fell in the range of 77 to 78 °C.

`CCOC(CN1CCOCC1)CN1C(=O)c2ccccc2CS1(=O)=O` (stereo not drawn): the melting point fell in the range of 128 to 129 °C.

`CN1c2cccc3c2N(CCC3)S1(=O)=O` returned a melting point of 103 to 104 °C.

Molecule `CCC(C)(C)C1CC=C(C(=O)O)CC1` (stereo not drawn) showed a melting point of 123 to 125 °C.

Molecule `CCOC(=O)c1cc([N+](=O)[O-])cn1Cc1ccccc1` had a melting point of 73 °C.

As to `Cc1nnc(-c2ccc3occ(-c4ccc(S(C)(=O)=O)c(F)c4)c3c2)o1`, the melting point was 199 to 200 °C.

As for `C=CCOC(=O)Nc1c(C#N)cnn1-c1ccc(Cl)c(Cl)c1Cl`, the melting point fell in the range of 154 to 155 °C.

Molecule `Cc1ccc(-n2cc(C(=O)O)c(=O)c3cc(F)c(F)c(F)c32)cc1` showed a melting point of 110 to 111 °C.

For the molecule `COc1ccc(-c2csc(Nc3ccc(C)cn3)n2)cc1`, the melting point lay within 246 to 248 °C.

With `Cc1ccc(-c2nc(N3CCOCC3)c3c(C)c(C#N)sc3n2)cc1`, the melting point fell in the range of 206 to 207 °C.

As for `CC1(C)CCc2[nH]cc(C(=O)Nc3ccc4c(c3)OCO4)c2C1=O`, the melting point is 251 to 252 °C.

In turn, `CN1CCN(c2cc(Cl)cc3c2c(=O)n(Cc2ccccc2)c(=O)n3Cc2ccccc2)CC1` yielded a melting point of 113 to 116 °C.

`N=C(NO)c1ccc(OCCCOc2c(Cl)cc(OCC=C(Cl)Cl)cc2Cl)cc1` registered a melting point of 144 to 146 °C.

In turn, `CC(C)(C)CC(C)(C)c1cc(N=Nc2cc(C#N)ccc2Cl)c(O)c(C(C)(C)c2ccccc2)c1` yielded a melting point of 190 to 191 °C.

Molecule `COc1ccccc1Oc1c(NS(=O)(=O)c2ccc(C)cn2)nc(N2CCOCC2)nc1OCCO` had a melting point of 195 to 196 °C.

For `CCNC(=O)Oc1cc2c(cc1Cl)CCN(C)C[C@H]2c1ccccc1`, the melting point was in the range of 133 to 134 °C.

`CCC(C=CC(C)C1CCC2C3CC=C4CC(OC(=O)NCCO)CCC4(C)C3CCC12C)C(C)C` (stereo not drawn): the melting point fell in the range of 172 to 173 °C.

Consider `O=C(O)CC1Cc2ccc(O)cc2OC1=O` (stereo not drawn), for which the melting point lay within 174 to 175 °C.

`CCOc1nc2ccccc2n(-c2ccc(Cl)cc2)c1=O` yielded a melting point of 244 to 246 °C.

Molecule `CN(C)C(=O)Cc1csc(NC(=O)C(Cc2ccccc2)NC(=O)OC(C)(C)C)n1` (stereo not drawn) showed a melting point of 139 to 140 °C.

In the case of `Fc1ccc(-c2csc(-c3cn([C@H]4CN5CCC4CC5)nn3)c2)cn1`, the melting point was 136 °C.

For the molecule `N#CC1=C(C2CCCN2)Nc2n[nH]cc2C1c1cccc(C#N)c1Br` (stereo not drawn), the melting point was over 240 °C.

Consider `O=c1[nH]c(NCCCOc2cccc(CN3CCCCC3)c2)ncc1[N+](=O)[O-]`, for which the melting point was 161 to 164 °C.

Consider `COC(=O)[C@@H]1O[C@@H](c2ccccc2)N(NS(=O)(=O)c2ccc([N+](=O)[O-])cc2)[C@H]1c1ccccc1`, for which the melting point was 118 to 120 °C.

As to `Cc1c(Br)cc2[nH]c(=O)c(=O)[nH]c2c1[N+](=O)[O-]`, the melting point was over 340 °C.

In turn, `C=Cn1cc(C(=O)O)c(=O)c2cc(F)c(Cl)cc21` gave a melting point of 210 °C.

Molecule `CC1(C)CNc2nc3cnc4ccccc4c3n2C1` gave a melting point of 326 to 330 °C.

Turning to `COc1ccc(-c2c3c(nn2-c2ccccc2)-c2cccc(N)c2C3=O)cc1`, the melting point came to 273 °C.

Regarding `O=c1[nH]c2ccccc2n1CCCN1CCN(c2n[nH]c3ccccc23)CC1`, the melting point fell in the range of 178 to 180 °C.

Take `Cc1cc2c(cc1C)CC(=O)NC=C2`: the melting point is 220 to 224 °C.

The molecule `CC(C)(C)c1cc(C=C2SCN(CC#N)C2=O)cc(C(C)(C)C)c1O` registered a melting point of 186 to 188 °C.

With `CCOC(=O)c1c(N2CCN(C(=O)c3cccs3)CC2)c2cc(Cl)cnc2n(CC(=O)c2ccccc2)c1=O`, the melting point was 227 °C.

Take `CN1CC(C(=O)COC(=O)c2cncc(Br)c2)CC2c3cccc4[nH]cc(c34)CC21` (stereo not drawn): the melting point was in the range of 185 to 187 °C.

The molecule `c1ccc2c(c1)CCc1c(N3CCN(Cc4c[nH]c5ncccc45)CC3)n[nH]c1-2` yielded a melting point of 245 to 247 °C.

`O=C(NCc1ccc(F)cc1)c1ccnc(N2CCN(Cc3ccc(F)c(F)c3)C2=O)c1` had a melting point of 165 to 167 °C.

As for `CCOC(=O)c1c(CCCCn2cncn2)nc2sc3c(c2c1-c1ccc(OC)c(OC)c1)CCN(C(=O)c1ccc(Cl)cc1)C3`, the melting point lay in the range of 165 to 166 °C.

For `O=C(Nc1ccccn1)Nc1cccc2c1C1CC(O)CCN1C2=O` (stereo not drawn), the melting point was determined as 220 °C.

Regarding `COC(=O)CNc1cccc(C)c1`, the melting point was determined as 40 °C.

The molecule `CC1(C)CCC(C)(C)c2cc(-c3cc(-c4ccc(C(=O)O)cc4)ccc3OCCCCCCCCCO)ccc21` returned a melting point of 147 to 150 °C.

For `CC(=O)Oc1ccc2scc(C(=O)O)c2c1`, the melting point lay within 239 to 240 °C.

`O=[N+]([O-])c1cccc(Oc2cncc(Cl)n2)c1` had a melting point of 118 to 119 °C.

Molecule `CC(C)(C)OC(=O)CNC(=O)c1sc(Nc2ccccc2)c2c1CCc1cnoc1-2` had a melting point of 115 to 116 °C.

`CC(C)Nc1cccnc1N1CCN(C(=O)c2ccc(C(=O)NCCO)cc2)CC1` returned a melting point of 182 to 184 °C.

The molecule `Cc1nsc(SCC2=C(C(=O)OC(c3ccccc3)c3ccccc3)N3C(=O)C(N)(N)C3SC2)n1` (stereo not drawn) had a melting point of 157 to 159 °C.

As to `CC(=O)c1cc(OCc2ccccc2)cc2c1OC(C)(C)C(=O)N2`, the melting point was 148 to 150 °C.

As to `CSc1nc(N)c2nsnc2n1`, the melting point fell in the range of 197 to 199 °C.

Regarding `O=C(NO)C(CCN1C(=O)c2ccccc2C1=O)NS(=O)(=O)c1ccc(-c2ccc(Cl)cc2)cc1` (stereo not drawn), the melting point lay within 184 to 186 °C.

In the case of `CCCOc1cc(CCCOc2c(CC(=O)O)cccc2OC)n(Cc2ccccc2OC)n1`, the melting point lay in the range of 79 to 82 °C.

`CC(C)c1cc(-c2ccc(F)cc2)n(-c2ncccn2)n1`: the melting point was in the range of 102 to 103 °C.

For the molecule `O=C(NCc1ccccc1)c1ccnc(-n2cnn(CC3CC3)c2=O)c1`, the melting point is 137 to 139 °C.

`Cc1ccc2c(c1)S(=O)CC(COC(=O)Nc1ccccc1)(COC(=O)Nc1ccccc1)C2=O` (stereo not drawn) returned a melting point of 65 to 73 °C.

`Cc1ccc2c(n1)C(=O)N(c1cccc(S(C)(=O)=O)c1C)C2=O` had a melting point of 237 to 239 °C.

On to `CCCCc1cc(N)n2nccc2n1`, for which the melting point lay within 124 to 126 °C.

Molecule `CC(C)(C)C(=O)Nc1cc2c(O)nc[nH]c-2n1` returned a melting point of 295 °C.

The molecule `CS(=O)(=O)Nc1ccc(C(=O)Cc2ccccc2)cc1Sc1ccc(F)cc1F` had a melting point of 120 to 122 °C.

`CC(=O)NCC(CCl)OC(C)=O` (stereo not drawn) had a melting point of 68 to 69.5 °C.

In turn, `COc1ccc(-c2cc3ccc(Cl)cc3[nH]c2=O)cc1` registered a melting point of 256 to 257 °C.

As for `CC[C@H](C)[C@H](NS(=O)(=O)c1ccc(C)cc1)C(=O)N[C@H](CO)Cc1c[nH]c2ccccc12`, the melting point lay in the range of 217 to 219 °C.

Molecule `COc1ccc2c([N+](=O)[O-])c(-c3ccc(OCc4ccccc4)cc3)[nH]c(=O)c2c1` yielded a melting point of 252 to 254 °C.

Turning to `COc1ccc(/C=C/S(=O)(=O)Nc2ccc(S(N)(=O)=O)cc2)cc1`, the melting point fell in the range of 181 to 183 °C.
